Patent US20100105680A1, “SUBSTITUTED DIMETHYLCYCLOBUTYL COMPOUNDS, THEIR PREPARATION AND USE IN MEDICAMENTS” (priority 2006, published 2010)

Molecular target: T1, sigma-1 receptor (Cavia porcellus, UniProt Q60492)
T1 construct: guinea pig brains were homogenized; from tissue; host or cells: guinea pig brain membranes
Assay: Sigma-1 receptor binding ([3H]-(+)-pentazocine, brain membranes)
Details: [3H]-(+)-pentazocine 0.5 nM, guinea pig brain membranes; for inhibition at 0.01 µM: compound concentration 0.0100 μM, read-out: Percent Inhibition Percent Concentration (μM) 0.0100 SIGMA-1 receptor; for inhibition at 0.1 µM: compound concentration 0.1000 μM, read-out: Percent Inhibition Percent Concentration (μM) 0.1000 SIGMA-1 receptor
Description: Brain membrane preparation and binding assays for the sigma-1 receptor were performed as described (DeHaven-Hudkins et al., Characterization of the binding of [^3H]-(+)-pentazocine to recognition sites in guinea pig brain, Eur. J. Pharmacol. 227, 371-378) with some modifications.
In brief, guinea pig brains were homogenized in 10 vols. (w/v) of Tris-HCl 50 mM, 0.32 M sucrose, pH 7.4, with a Kinematica Polytron PT 3000 at 15000 r.p.m. for 30 s. The homogenate was centrifuged at 1000 g for 10 min at 4° C. and the supernatants collected and centrifuged again at 48000 g for 15 min at 4° C. The pellet was resuspended in 10 volumes of Tris-HCl buffer (50 mM, pH 7.4), incubated at 37° C. for 30 min, and centrifuged at 48000 g for 20 min at 4° C. Following this, the pellet was resuspended in fresh Tris-HCl buffer (50 mM, pH 7.4) and stored on ice until use.
Each assay tube contained 10 μL of [^3H]-(+)-pentazocine (final concentration of 0.5 nM), 900 μL of the tissue suspension to a final assay volume of 1 mL and a final tissue concentration of approximately 30 mg tissue net weight/mL. Non-specific binding was defined by addition of a final concentration of […] haloperidol. All tubes were incubated at 37° C. for 150 min before termination of the reaction by rapid filtration over Schleicher & Schuell GF 3362 glass fibre filters [previously soaked in a solution of 0.5% polyethylenimine for at least 1 h]. Filters were then washed with four times with 4 mL of cold Tris-HCl buffer (50 mM, pH 7.4). Following addition of scintillation cocktail, the samples were allowed to equilibrate overnight. The amount of bound radioactivity was determined by liquid scintillation spectrometry using a Wallac Winspectral 1414 liquid scintillation counter. Protein concentrations were determined by the method of Lowry et al. (Protein measurement with the Folin phenol reagent, J. Biol. Chem, 193, 265).
The binding of the compounds of the present invention to sigma-1 receptors was tested as described above.

T1 sequence (Q60492 whole entry): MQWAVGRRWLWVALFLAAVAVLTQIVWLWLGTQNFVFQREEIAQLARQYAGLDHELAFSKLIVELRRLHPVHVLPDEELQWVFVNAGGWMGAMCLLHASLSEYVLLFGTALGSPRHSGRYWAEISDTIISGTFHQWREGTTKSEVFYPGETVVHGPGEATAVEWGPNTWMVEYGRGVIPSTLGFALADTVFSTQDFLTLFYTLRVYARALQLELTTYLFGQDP

CC1(C)[C@H](COCc2ccccc2)C[C@@H]1CCN1CCCCC1 [compound 38]
Ki: 1.2 nM
inhibition at 0.01 µM: 88.6%
inhibition at 0.1 µM: 98.5%

CC1(C)[C@H](CCO)C[C@@H]1CN1CCCCC1 [compound 18]
inhibition at 0.01 µM: -21.4%
inhibition at 0.1 µM: 44.8%

CC1(C)[C@@H](CCN2CCC(Cc3ccccc3)CC2)C[C@H]1CN1CCCCC1 [compound 52]
inhibition at 0.01 µM: -0.6%
inhibition at 0.1 µM: 52.6%

CC1(C)[C@@H](CCn2ccnc2)C[C@H]1CN1CCCCC1 [compound 48]
inhibition at 0.01 µM: 34.3%
inhibition at 0.1 µM: 72.4%

CC1(C)[C@H](CCOCc2ccccc2)C[C@@H]1CN1CCCCC1 [compound 2]
Ki: 1.5 nM
inhibition at 0.01 µM: 66.5%
inhibition at 0.1 µM: 95.9%

CC1(C)[C@@H](CCOCc2ccccc2)C[C@H]1CN1CCCCC1 [compound 27]
Ki: 1.1 nM
inhibition at 0.01 µM: 96.5%
inhibition at 0.1 µM: 104%

CC1(C)[C@@H](CCn2cccn2)C[C@H]1CN1CCCCC1 [compound 49]
Ki: 4.9 nM
inhibition at 0.01 µM: 45.7%
inhibition at 0.1 µM: 92%

CC1(C)[C@@H](CCN2CCC(Cc3ccccc3)CC2)C[C@H]1CN1CCOCC1 [compound 42]
inhibition at 0.01 µM: 19.7%
inhibition at 0.1 µM: 88%
